The supplement of paper PMC10307832

Key:
Assay in all cases: relative viability (nuclei count vs DMSO), 5 days (fraction); higher = more cells survive
[1] = compound: C1CC(C1)(C(=O)O)C(=O)O.[NH2-].[NH2-].[Pt+2] [Carboplatin] + Nc1nc2[nH]cc(CCc3ccc(C(=O)N[C@@H](CCC(=O)O)C(=O)O)cc3)c2c(=O)[nH]1 [Pemetrexed] (partner 0.2 µM)
Procedure, shortened: (§1)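 Lung cancer cell lines in 1536-well plates were dosed by pin tool the day after seeding, either with one drug alone or with a fixed anchor-drug dose plus five library-drug doses (not always all listed) in √10 steps. After 5 days, cells were fixed and their nuclei stained in one step (final 0.05% Triton X-100, 1% formaldehyde, 1 ug/ml Hoechst), then counted on 4× images. Relative viability is the nuclei count in treated wells divided by that in vehicle wells. Values are medians of duplicate plates.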

[2] = compound: CC[C@H](C)N1C=C(C2=C(C=C(C=C21)C3=CN=C(C=C3)N4CCNCC4)C(=O)NCC5=C(C=C(NC5=O)C)C)C [GSK126] + COc1cc2c(Oc3ccc(NC(=O)C4(C(=O)Nc5ccc(F)cc5)CC4)cc3F)ccnc2cc1OCCCN1CCOCC1 [Foretinib] (partner 0.25 µM)
Procedure, shortened: as §1

[3] = compound: CC[C@H](C)N1C=C(C2=C(C=C(C=C21)C3=CN=C(C=C3)N4CCNCC4)C(=O)NCC5=C(C=C(NC5=O)C)C)C [GSK126] + CS(=O)(=O)N1CCN(Cc2cc3nc(-c4cccc5[nH]ncc45)nc(N4CCOCC4)c3s2)CC1 [Pictilisib] (partner 1 µM)
Procedure, shortened: as §1

[4] = compound: NS(=O)(=O)OC[C@@H]1C[C@@H](n2ccc3c(N[C@H]4CCc5ccccc54)ncnc32)C[C@@H]1O [MLN4924] + Cc1nc(NC(=O)N2CCC[C@H]2C(N)=O)sc1-c1ccnc(C(C)(C)C(F)(F)F)c1 [Alpelisib] (partner 2 µM)
Procedure, shortened: as §1

Cell Line	relative viability ([1]; first compound 0.08 µM)	relative viability ([1]; first compound 0.253 µM)	relative viability ([1]; first compound 0.8 µM)	relative viability ([1]; first compound 2.53 µM)	relative viability ([1]; first compound 8 µM)	relative viability ([2]; first compound 0.08 µM)	relative viability ([2]; first compound 0.253 µM)	relative viability ([2]; first compound 0.8 µM)	relative viability ([2]; first compound 2.53 µM)	relative viability ([2]; first compound 8 µM)	relative viability ([3]; first compound 0.08 µM)	relative viability ([3]; first compound 0.253 µM)	relative viability ([3]; first compound 0.8 µM)	relative viability ([3]; first compound 2.53 µM)	relative viability ([3]; first compound 8 µM)	relative viability ([4]; first compound 0.04 µM)	relative viability ([4]; first compound 0.1265 µM)	relative viability ([4]; first compound 0.4 µM)	relative viability ([4]; first compound 1.265 µM)	relative viability ([4]; first compound 4 µM)
NCI-H661	0.942	0.858	0.903	0.916	0.839	1.09	1.05	0.997	1.04	1.09	0.43	0.433	0.401	0.565	0.345	0.664	0.887	0.502	0.231	0.351
NCI-H838	0.271	0.285	0.236	0.244	0.251	1.1	1.07	0.929	0.992	0.954	0.507	0.35	0.403	0.426	0.369	0.795	0.658	0.261	0.168	0.148
NCI-H1355	1.06	1.1	1.09	1	0.892	1.05	1.05	0.964	1.09	0.979	0.476	0.531	0.447	0.499	0.447	0.831	0.865	0.776	0.35	0.152
NCI-H1395	1.02	0.983	0.814	0.61	0.534	1.17	0.878	1.04	1.07	0.785	0.653	0.653	0.798	0.699	0.726	1.05	0.812	0.553	0.343	0.365
NCI-H1437	0.33	0.28	0.301	0.307	0.298	1.32	1.29	1.14	1.26	1.27	0.44	0.504	0.406	0.455	0.405	0.905	0.977	0.755	0.422	0.101
NCI-H1563	0.941	0.751	0.73	0.755	0.791	1.01	0.9	0.934	0.893	0.95	0.616	0.715	0.695	0.648	0.551	1.36	1.31	0.898	0.564	0.566
NCI-H1651	0.702	0.61	0.552	0.534	0.56	0.736	0.848	0.868	0.702	0.977	0.55	0.548	0.601	0.608	0.584	1.11	0.961	0.793	0.362	0.168
NCI-H1666	0.876	0.857	0.845	0.846	0.819	0.997	0.925	0.918	0.921	0.917	0.558	0.483	0.379	0.384	0.528	1.18	0.832	0.432	0.148	0.205
NCI-H1734	0.423	0.422	0.495	0.408	0.419	0.931	0.868	0.771	0.817	0.904	0.49	0.403	0.408	0.43	0.45	0.947	0.95	0.246	0.139	0.118
NCI-H1755	0.436	0.371	0.437	0.443	0.386	1.02	0.975	0.962	0.924	0.968	0.512	0.451	0.459	0.46	0.384	0.835	0.638	0.475	0.172	0.145
NCI-H1793	1.1	0.908	0.918	0.866	0.93	0.799	0.519	0.581	0.776	0.885	0.224	0.37	0.36	0.502	0.343	0.804	0.801	0.732	0.513	0.276
NCI-H1915	0.487	0.531	0.505	0.47	0.416	1.22	1.16	1.09	1.08	1.2	0.937	0.874	1.04	0.941	0.927	1.03	0.865	0.892	0.216	0.17
NCI-H1944	0.644	0.557	0.643	0.526	0.485	0.918	0.837	0.854	0.872	0.956	0.356	0.349	0.367	0.36	0.391	1.02	1.02	1.04	0.23	0.188
NCI-H1975	0.297	0.266	0.277	0.298	0.268	0.952	0.828	0.886	0.873	0.932	0.328	0.301	0.321	0.291	0.274	0.694	1.11	1.26	0.339	0.21
NCI-H1993	0.684	0.568	0.513	0.67	0.608	0.704	0.812	0.726	0.845	0.859	0.841	0.795	0.828	0.902	0.782	0.808	0.555	0.596	0.569	0.541
